Assay results: article PMC10821124, “Dimeric 3,5-Bis(benzylidene)-4-piperidones: Tumor-Selective Cytotoxicity and Structure-Activity Relationships” (Medicines, 2024)

Experiments:
[1] = Cytotoxicity, MTT method, HGF non-malignant cells; type: cell-based, human; details: human, gingival fibroblasts (HGF), non-malignant, mean ± SD
Experimental: (§1) Human promyelocytic leukemia [HL-60 (RCB3683)] (purchased from Riken Cell Bank, Tsukuba, Japan) was cultured at 37 °C in RPMI1640 medium (Fujifilm Wako Pure Chemical Co., Osaka, Japan) supplemented with 10% heat (56 °C, 30 min) inactivated FBS (Sigma-Aldrich Inc. St. Louis, MO, USA), 100 U/mL penicillin G, and 100 µg/mL streptomycin sulfate in a humidified 5% CO2 incubator (MCO-170 AICUVD-P, Panasonic Healthcare Co., Ltd., Gunma, Japan). Human oral squamous cell carcinoma (OSCC) cell lines derived from tongue [HSC-2 (RCB1945), HSC-3 (RCB1975), HSC-4 (RCB1902)] (Riken Cell Bank), and human normal oral cells (gingival fibroblasts, HGF; pulp cell, HPC; periodontal ligament fibroblast, HPLF), established from the first premolar extracted tooth in the lower jaw and periodontal tissues of a child, according to the guidelines of Meikai University Ethic Committee (No. A0808), were cultured in DMEM medium (Fujifilm Wako Pure Chemical Co.) supplemented with 10% FBS and antibiotics. The compounds in Series 2–4 were evaluated against HL-60, HSC-2, HSC-3, HSC-4, HGF, HPC, and HPLF cells based on a literature procedure, as described previously. In brief, near confluent cells were incubated in triplicate for 48 h at 37 °C with different concentrations ([…], 6.3, 12.5, 25, 50, 100 µM) of the compounds; then, viable cell numbers were measured using the MTT method. From the dose–response curve, a 50% cytotoxic concentration (CC50) was determined. All samples were dissolved in dimethylsulfoxide (DMSO). The toxicity of DMSO alone was calculated and subtracted. The CC50 values were determined from dose–response curves.

[2] = test system: human tumour cell lines HL-60, HSC-2, HSC-3, HSC-4; experiment: Cytotoxicity, average over the four human tumour cell lines; type: cell-based; details: for CC50: Homo sapiens, average of HL-60, HSC-2, HSC-3, HSC-4, read-out: AVE. CC50, human tumour cell lines; for AVE SI: average of the four SI values; for PSE (potency-selectivity expression): product of reciprocal of average CC50 (neoplastic cells) and average SI times 100
Experimental: as §1

[3] = test system: human oral squamous cell carcinoma HSC-2 cells; experiment: Cytotoxicity, MTT method, HSC-2 cells; type: cell-based; details: for CC50: Homo sapiens, HSC-2, 48 h, MTT, mean ± SD, read-out: CC50 HSC-2; for SI (selectivity index) HSC-2: average CC50 non-malignant cells / CC50 HSC-2
Experimental: as §1

[4] = test system: human promyelocytic leukemia HL-60 cells; experiment: Cytotoxicity, MTT method, HL-60 cells; type: cell-based; details: for CC50: Homo sapiens, HL-60, 48 h, MTT, mean ± SD, read-out: CC50 HL-60; for SI (selectivity index) HL-60: average CC50 non-malignant cells / CC50 HL-60
Experimental: as §1

[5] = Cytotoxicity, MTT method, HPC non-malignant cells; type: cell-based, human; details: human, pulp cells (HPC), non-malignant, mean ± SD
Experimental: as §1

[6] = Cytotoxicity, average over the three human normal cells; type: cell-based; details: human, average of HGF, HPC, HPLF; read-out: AVE CC50, human normal cells
Experimental: as §1

[7] = Cytotoxicity, MTT method, HPLF non-malignant cells; type: cell-based, human; details: human, periodontal ligament fibroblasts (HPLF), non-malignant, mean ± SD
Experimental: as §1

[8] = test system: human oral squamous cell carcinoma HSC-3 cells; experiment: Cytotoxicity, MTT method, HSC-3 cells; type: cell-based; details: for CC50: Homo sapiens, HSC-3, 48 h, MTT, mean ± SD, read-out: CC50 HSC-3; for SI (selectivity index) HSC-3: average CC50 non-malignant cells / CC50 HSC-3
Experimental: as §1

[9] = test system: human oral squamous cell carcinoma HSC-4 cells; experiment: Cytotoxicity, MTT method, HSC-4 cells; type: cell-based; details: for CC50: Homo sapiens, HSC-4, 48 h, MTT, mean ± SD, read-out: CC50 HSC-4; for SI (selectivity index) HSC-4: average CC50 non-malignant cells / CC50 HSC-4
Experimental: as §1

SMILES | CC50 at 48 h [1] | CC50 [2] | AVE SI [2] | CC50 [3] | SI (selectivity index) HSC-2 [3] | CC50 [4] | SI (selectivity index) HL-60 [4] | CC50 at 48 h [5] | CC50 at 48 h [6] | CC50 at 48 h [7] | CC50 [8] | SI (selectivity index) HSC-3 [8] | CC50 [9] | SI (selectivity index) HSC-4 [9] | CC50 values in all four bioassays (range in words) ([2]; HL-60, HSC-2, HSC-3, HSC-4) | PSE (potency-selectivity expression) [2]
Cc1ccc(/C=C2\CN(C(=O)CC(=O)N3C/C(=C\c4ccc(C)cc4)C(=O)/C(=C/c4ccc(C)cc4)C3)C/C(=C\c3ccc(C)cc3)C2=O)cc1 [Compound 3e] | 20000 ± 1300 nM | 1780 nM | 14.3 | 1600 ± 390 nM | 15.4 | 1400 ± 150 nM | 17.6 | 19000 ± 2700 nM | 24700 nM | 35000 ± 4200 nM | 2200 ± 200 nM | 11.2 | 1900 ± 150 nM | 13.0 |  | 
COc1ccc(/C=C2\CN(C(=O)CC(=O)N3C/C(=C\c4ccc(OC)c(OC)c4)C(=O)/C(=C/c4ccc(OC)c(OC)c4)C3)C/C(=C\c3ccc(OC)c(OC)c3)C2=O)cc1OC [Compound 3f] | 1100 ± 84 nM | 230 nM | 7.35 | 340 ± 76 nM | 4.41 | 260 ± 21 nM | 5.77 | 1600 ± 78 nM | 1500 nM | 1800 ± 50 nM | 200 ± 140 nM | 7.50 | 128 ± 14 nM | 11.7 |  | 
COc1cc(/C=C2\CN(C(=O)CC(=O)N3C/C(=C\c4cc(OC)c(OC)c(OC)c4)C(=O)/C(=C/c4cc(OC)c(OC)c(OC)c4)C3)C/C(=C\c3cc(OC)c(OC)c(OC)c3)C2=O)cc(OC)c1OC [Compound 3g] | 93 ± 20 nM | 40 nM | 4.92 | 65 ± 16 nM | 2.92 | 30 ± 0.2 nM | 6.33 | 180 ± 30 nM | 190 nM | 300 ± 47 nM | 35 ± 5 nM | 5.43 | 38 ± 9 nM | 5.00 | double-digit nanomolar range | > 100
O=C1/C(=C/c2ccccc2)CN(CCCN2C/C(=C\c3ccccc3)C(=O)/C(=C/c3ccccc3)C2)C/C1=C\c1ccccc1 [Compound 4] | 3000 ± 210 nM | 210 nM | 25.2 | 210 ± 32 nM | 19.1 | 180 ± 11 nM | 22.2 | 3700 ± 2000 nM | 4000 nM | 5300 ± 610 nM | 350 ± 110 nM | 11.4 | 83 ± 21 nM | 48.2 |  | > 100
COc1cc(/C=C/C(=O)CC(=O)/C=C/c2ccc(O)c(OC)c2)ccc1O [Curcumin, reference compound] | 70000 ± 12000 nM | 12000 nM | 4.10 | 10000 ± 810 nM | 4.53 | 7800 ± 580 nM | 5.81 | 34000 ± 6800 nM | 45300 nM | 32000 ± 6400 nM | 16000 ± 2700 nM | 2.83 | 14000 ± 3200 nM | 3.24 |  | 
